Some test systems named below: A549 NSCLC; SK-OV-3 ovarian; K-562 leukemia; HCT-116 colon; SNB-19 CNS; OVCAR-8 ovarian; HCT-15 colon; HOP-62 NSCLC; U251 CNS; SN12C renal.
Assay in all cases: NCI anticancer screen, dose series, 48 h

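Tested at 5 concentrations; 48 h exposure; 96-well plates; endpoints linearly interpolated, else capped at highest concentration. GI50: concentration for 50% inhibition of growth. TGI denotes the concentration required for complete inhibition of growth.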

`C#CCCCCC#CC1CCCC1C1=CC(=O)c2ccccc21` (stereo not given): the TGI is 30 µM in the test with A549 NSCLC; 28.7 µM with SK-OV-3 ovarian; 8.14 µM with K-562 leukemia; 2.91 µM with HCT-116 colon; 28.8 µM in the test with SNB-19 CNS; 3.52 µM with OVCAR-8 ovarian. Also, the TGI came out at 19.9 µM in the test with HCT-15 colon, 20.3 µM with HOP-62 NSCLC, 16.9 µM with U251 CNS and 19.4 µM in the test with SN12C renal.
With `CN(C)CCNc1ccc2nnn3c4ccc(Cl)cc4c(=O)c1c23`, the TGI with A549 NSCLC stood at 14.1 µM; in the test with SK-OV-3 ovarian, 35.1 µM; with K-562 leukemia, 22.7 µM; with HCT-116 colon, 14.6 µM; in the test on SNB-19 CNS, 26.7 µM; with OVCAR-8 ovarian it was 16.9 µM. Besides, the TGI in the test with HCT-15 colon was determined as 14.8 µM; in the test on HOP-62 NSCLC, 21.4 µM; in the test with U251 CNS, 6.72 µM; with SN12C renal it was 21.8 µM.
In the case of `N=C(N)SC1c2ccccc2-c2cc([N+](=O)[O-])ccc21` (stereo not given), the TGI in the test with A549 NSCLC stood at 19.4 µM; with SK-OV-3 ovarian it was 18.9 µM; in the test with K-562 leukemia, 22 µM; with HCT-116 colon it was 16.3 µM; in the test on SNB-19 CNS it was 14.3 µM; with OVCAR-8 ovarian it was 37.1 µM. In addition, the TGI with HCT-15 colon worked out at 22.6 µM; with HOP-62 NSCLC it was 21.2 µM; in the test with U251 CNS it was 8.95 µM; in the test with SN12C renal, 26.6 µM.
As to `O=[N+]([O-])/C=C/c1cccc(F)c1`, the TGI is > 100 µM in the test on A549 NSCLC; 28.2 µM with SK-OV-3 ovarian; 8.86 µM in the test with HCT-116 colon; 29.7 µM in the test on SNB-19 CNS; 32 µM with OVCAR-8 ovarian; 5.6 µM in the test on HCT-15 colon. Moreover, the results for the TGI in the test with HOP-62 NSCLC, in the test on U251 CNS and in the test with SN12C renal were 32.4 µM, 16.4 µM and 38.9 µM, respectively.
In the case of `CC1(C)[C@@H]2C[C@H]1C(Cc1ccccc1C[C@H]1c3cc(-c4ccccn4)ncc3[C@H]3C[C@@H]1C3(C)C)c1cc(-c3ccccn3)ncc12` (stereo not given in full), the TGI is > 100 µM in the test on A549 NSCLC; > 100 µM in the test with SK-OV-3 ovarian; > 100 µM in the test on K-562 leukemia; 10.1 µM in the test with HCT-116 colon; > 100 µM in the test on SNB-19 CNS; > 25.5 µM in the test with OVCAR-8 ovarian. Also, the TGI is > 100 µM in the test on HCT-15 colon, 0.328 µM in the test with HOP-62 NSCLC, > 28.8 µM with U251 CNS and > 100 µM with SN12C renal.
For the compound `NC(Cc1ccc2oc3cc(=O)c4ccccc4c-3nc2c1)C(=O)O` (stereo not given), the TGI was 62.5 µM in the test with A549 NSCLC; > 100 µM in the test with SK-OV-3 ovarian; 77.1 µM in the test with K-562 leukemia; 76.8 µM in the test on HCT-116 colon; > 97.7 µM with SNB-19 CNS; > 100 µM in the test on OVCAR-8 ovarian. Moreover, the TGI in the test on HCT-15 colon was > 88.3 µM; in the test with HOP-62 NSCLC it was 76.3 µM; in the test on U251 CNS, > 87.1 µM; with SN12C renal, 39.5 µM.
Regarding `Cc1ccc(NCCN(C)CC(C)O)c2c(=O)c3ccc(Cl)cc3sc12` (stereo not given), the GI50 in the test with A549 NSCLC was 4.08 µM; in the test with SK-OV-3 ovarian it was 3.19 µM; with SNB-19 CNS it was 4.62 µM; with OVCAR-8 ovarian, 7.16 µM; in the test on U251 CNS, 3.68 µM; in the test on SN12C renal it was 4.42 µM. Further, the TGI in the test with A549 NSCLC, with SK-OV-3 ovarian, with SNB-19 CNS, in the test on OVCAR-8 ovarian, in the test on U251 CNS and with SN12C renal was > 100 µM throughout.
For the compound `CC(=O)O[C@H]1CC[C@]2(C)[C@H]3C(=O)C=C4[C@@H]5C[C@](C)(C(=O)N6CCCNCC6)CC[C@]5(C)CC[C@@]4(C)[C@]3(C)CC[C@H]2C1(C)C`, the GI50 in the test on A549 NSCLC was 1.82 µM; in the test with SK-OV-3 ovarian it was 1.87 µM; with K-562 leukemia, 1270 nM; in the test on HCT-15 colon, 1.48 µM; with HOP-62 NSCLC, 1.78 µM; in the test on U251 CNS, 1.6 µM. In addition, the TGI worked out at 4.67 µM in the test on A549 NSCLC; 3.48 µM in the test on SK-OV-3 ovarian; 4.27 µM in the test with K-562 leukemia; 2.97 µM with HCT-15 colon; 4.14 µM in the test on HOP-62 NSCLC; 3.37 µM in the test with U251 CNS.
As to `C/C=C1/CN2CC[C@@H]3c4ccccc4N4[C@H](C(=O)OC)[C@H]1C[C@H]2[C@]34/C=C/C1=COC[C@@H]2[C@H]1C[C@H]1c3c(c4ccccc4n3C)C[C@@H]2N1C`, the TGI is 8.28 µM in the test with A549 NSCLC; 8.06 µM with SK-OV-3 ovarian; 25 µM in the test with K-562 leukemia; 7.61 µM in the test with HCT-116 colon; 7.39 µM with SNB-19 CNS; 8.04 µM in the test on OVCAR-8 ovarian. In addition, the TGI stood at 7.83 µM with HCT-15 colon, 7.29 µM in the test on HOP-62 NSCLC, 7.65 µM in the test with U251 CNS and 9.17 µM in the test with SN12C renal.
For `CCCCCCc1ccc(O)cc1O`, the TGI with A549 NSCLC, in the test on SK-OV-3 ovarian, in the test on K-562 leukemia, in the test on HCT-116 colon, with SNB-19 CNS and in the test with OVCAR-8 ovarian was > 100 µM each time. The TGI in the test on HCT-15 colon, in the test with HOP-62 NSCLC, with U251 CNS and in the test with SN12C renal was > 100 µM each time.
Turning to `NC(=O)c1nnc2cc(F)c(F)cc2c1N`, the TGI is > 100 µM with A549 NSCLC; 82.4 µM in the test with SK-OV-3 ovarian; > 100 µM with K-562 leukemia; > 100 µM with HCT-116 colon; > 100 µM in the test on SNB-19 CNS; > 100 µM in the test on OVCAR-8 ovarian. The TGI with HCT-15 colon was > 100 µM; in the test on HOP-62 NSCLC, 39.6 µM; in the test with U251 CNS, 69.7 µM; in the test on SN12C renal, > 100 µM.
As to `CN[C@@H]1[C@H](O)[C@H](NC)[C@H]2O[C@@]3(O)C(=O)C[C@@H](C)O[C@H]3O[C@@H]2[C@H]1O`, the TGI in the test on SK-OV-3 ovarian, in the test with K-562 leukemia, with HCT-116 colon, in the test with SNB-19 CNS, in the test on OVCAR-8 ovarian and with HCT-15 colon was > 100 µM throughout. Further, the TGI in the test on HOP-62 NSCLC, with U251 CNS and with SN12C renal was > 100 µM throughout.
With `COc1cc2c(cc1O)CCN[C@@]21CS[C@H]2c3c(OC(C)=O)c(C)c4c(c3C(COC1=O)N1C2C2c3c(cc(C)c(OC)c3O)CC([C@@H]1O)N2C)OCO4` (stereo not given in full), the GI50 is 0.00246 µM with SK-OV-3 ovarian; < 0.001 nM with K-562 leukemia; 0.00305 µM in the test on HCT-116 colon; 0.00149 µM in the test on OVCAR-8 ovarian; 0.00282 µM with HCT-15 colon. The TGI is 1.54e-05 µM with K-562 leukemia, > 0.525 µM in the test with HCT-116 colon, < 1e-06 µM in the test on HOP-62 NSCLC and 4.41e-06 µM in the test with SN12C renal.
As to `C=C(/C=C/C=C(/CCC=C(C)C)COC(C)=O)[C@@H]1CC[C@]2([C@H](CCCO)/C(=C(/C)C=O)CC[C@]2(C)O)[C@@H]1O`, the TGI in the test with A549 NSCLC was found to be 26.2 µM; with SK-OV-3 ovarian, 54.5 µM; with K-562 leukemia it was 30.2 µM; with HCT-116 colon, 45.6 µM; in the test with SNB-19 CNS it was 29.7 µM; in the test on OVCAR-8 ovarian, 52.3 µM. Further, the results for the TGI with HCT-15 colon, in the test on U251 CNS and with SN12C renal were 30.4 µM, 30.7 µM and 29.9 µM, respectively.

Source of the values: PubChem BioAssay (NCI).
